Test results reported in patent publication US20120296090A1, “Drug Repositioning Methods For Targeting Breast Tumor Initiating Cells” (The Methodist Hospital Research Institute, priority 2011, published 2012).
Entries after “also recorded” stand apart in the source; their conditions may differ.

Key:
SUM159 = test: mammosphere-forming efficiency (MSFE) assay; format: cell-based, human; details: 10 nM and 1 μM, after a single treatment dose
Experimental: (§1) The bioinformatics systems-based methods described herein also identified a further subset of ten drugs that were subsequently tested in vitro and in vivo for their ability to inhibit breast TICs. These in silico results were first confirmed by in vitro studies that evaluated the effects of these repositioned drugs on mammosphere-forming efficiency. […] Next, limiting dilution transplantation assays were performed, whereupon SUM159 cells were treated with […] overnight and then transplanted the next day 200,000 cells/mouse (single sided).

BT549 = test: mammosphere-forming efficiency (MSFE) assay; format: cell-based, human; details: 10 nM and 1 μM, after a single treatment dose
Experimental: as §1

human breast cancer TICs [1] = test: mammosphere formation efficiency assay on triple-negative cancer cell lines; format: cell-based; details: at least two triple-negative cancer cell lines
Text: (§2) Thus, the proposed drug-repositioning platform consists of CSB model, bioinformatics software, and drug information databases. Among the twenty-one drug candidates identified in this study, three drugs, i.e., sunitinib (Sutent®, Pfizer Oncology, New York, N.Y., USA), dasatinib (Sprycel®, Bristol-Myers Squibb, Princeton, N.J., USA) and chloroquine (Aralen®, sanofi-aventis, US, LLC, Bridgewater, N.J., USA) were further analyzed for their in vitro and in vivo effects on human breast cancer TICs, and in murine xenograft models. […] As a result of this finding, dasatinib is now currently in Phase II clinical trials for advanced breast cancer to assess the efficacy of this drug for inhibiting TICs.

SUM159 cells = test: limiting dilution transplantation assay; format: in vivo; details: SUM159 cells treated overnight, transplanted 200,000 cells/mouse; vehicle control 9 of 12
Experimental: as §1

breast TICs = test: inhibition of breast TICs in vitro and in vivo (FIG. 3, human breast cancer xenograft mammosphere formation efficiency); format: cell-based
human breast cancer TICs [2] = test: dilute transplantation assay in murine xenograft models; format: in vivo
Text: as §2

MCF7 = details: cited from earlier work; for cell growth: considered dosages (<10 μM); for cell death / apoptosis: higher dosages, MCF7
[3] = system: H226, human non-small cell lung cancer (NSCLC); test: Cell proliferation assay (CellTiter 96 AQueous One Solution); format: cell-based
Experimental: (§3) Five tumor cell lines were used in these studies: HT-29, human colorectal adenocarcinoma; H69, human small cell lung cancer (SCLC); H226, human non-small cell lung cancer (NSCLC) (squamous carcinoma); LNCaP, human prostate carcinoma; and U87-luc glioblastoma cell line. H69, H226, and LNCaP cells were grown in American Type Culture Collection (ATCC)-formulated RPMI-1640 Medium (ATCC, cat#30-2001; […]) supplemented with 10% fetal bovine serum (FBS) and 1% penicillin/streptomycin (Invitrogen, Carlsbad, Calif., USA). HT-29 cells were cultured in ATCC-formulated McCoy's 5a Medium (Modified) (ATCC, cat#30-2007). […]
(§4) Cell proliferation was analyzed using CellTiter 96 AQueous One Solution Cell Proliferation Assay (Promega, Madison, Wis., USA) according to the manufacturer's instructions. […] After 3-hrs' incubation, absorbance at 490 nm was measured using the FLUOstar™ Omega Microplate Reader (BMG LABTECH, Cary, N.C., USA). Background absorbance (490 nm) was corrected by subtracting the average 490 nm absorbance of the “no cell” control wells from absorbance values obtained for each of the test wells. The proliferative ratio (% surviving cells) in each sample was calculated by dividing the corrected absorbance value of treated cells by that of control cells with no drug treatment. The results were expressed as mean with standard errors from two independent studies.

[4] = system: HT-29, human colorectal adenocarcinoma; test: as above; format: cell-based; details: colorectal cancer cell line HT-29; 48 hours of treatment
Experimental: as §3, §4

SMILES | cell growth (MCF7) | cell death / apoptosis (MCF7) | other results
CCN(CC)CCCC(C)Nc1ccnc2cc(Cl)ccc12 (stereo not shown) [chloroquine] |  |  | MSFE (mammosphere-forming efficiency) (SUM159): dramatic reduction; MSFE (mammosphere-forming efficiency) (BT549): dramatic reduction; anti-TICs effects (mammosphere formation efficiency assay) (human breast cancer TICs [1]): anti-TICs effects; tumor initiation rate (xenografts growing within 10 weeks) (SUM159 cells): 1 of 12; inhibiting breast TICs (breast TICs): effective in inhibiting breast TICs; anti-cancer effects in animal models (dilute transplantation assay) (human breast cancer TICs [2]): anti-cancer effects
C[C@]12CC[C@@H]3c4ccc(O)cc4C[C@@H](CCCCCCCCC[S+]([O-])CCCC(F)(F)C(F)(F)F)[C@H]3[C@@H]1CC[C@@H]2O (stereo partly shown) [fulvestrant] | significantly inhibited cell growth | does not induce any cell death; also recorded: did not induce the cell death | 
COc1cc2ncnc(Nc3ccc(F)c(Cl)c3)c2cc1OCCCN1CCOCC1 [gefitinib] |  |  | effect on cell proliferation [3]: positive effects; effect on cell proliferation [4]: positive effects
CC(=O)O[C@H]1C(=O)[C@@]2(C)[C@H]([C@H](OC(=O)c3ccccc3)[C@]3(O)C[C@H](OC(=O)[C@H](O)[C@@H](NC(=O)c4ccccc4)c4ccccc4)C(C)=C1C3(C)C)[C@]1(OC(C)=O)CO[C@@H]1C[C@@H]2O [paclitaxel] | significantly inhibited cell growth | induce apoptosis at higher dosages; also recorded: some experiments also cause the cell death | 
O=C(c1ccc(OCCN2CCCCC2)cc1)c1c(-c2ccc(O)cc2)sc2cc(O)ccc12 [raloxifene] | significantly inhibited cell growth | induce apoptosis at higher dosages; also recorded: induced cell death at higher dosages | 
CC/C(=C(\c1ccccc1)c1ccc(OCCN(C)C)cc1)c1ccccc1 [tamoxifen] | significantly inhibited cell growth | induce apoptosis at higher dosages; also recorded: induced cell death at higher dosages | 
